Measurements taken from article PMC9304322, “Targeting retinoic acid receptor alpha-corepressor interaction activates chaperone-mediated autophagy and protects against retinal degeneration” (Nature Communications, 2022).
Where “and” joins values, the source holds several entries; their conditions need not be identical. Identical values can stand only once.

Key:
rd10 mice [1] = experiment: rd10 mice, daily i.p. injection, retina histology and biochemistry; format: in vivo, mouse; settings: daily i.p. 40 mg/kg bw, P18 to P25
Protocol: (§1) C57BL/6 J mice wild-type (WT) and homozygous for the Pde6 mutation (rd10 mouse model of retinal degeneration) were obtained from The Jackson Laboratory and experiments were performed at the age indicated in each part of the study. C57BL/6 KFERQ-Dendra mice were generated by back-crossing FVB KFERQ-Dendra mice with wild-type C57BL/6 mice for 8 generations. Both male and female animals were used in this study in equally distribution groups. However, results from both sexes were pooled, because of absence of significant differences in any of the parameters analyzed after statistical analysis with a mixed model of two-way ANOVA sex and treatment as independent variables and the corresponding measure as dependent variable. All animals were housed in a barrier-controlled facility (19–23 °C 30–60% relative humidity; 12 h light/dark cycle) with ad libitum access to standard chow pellets (protein 19 gm%/carbohydrate 67 gm%/fat 4 gm%) and water. For animal administration of CA compounds, a formula containing 30% PEG 400 (Sigma, #8.0745), 65% of 5% glucose solution, 5% Tween 80 (Sigma, #P1754) was used to dissolve them. CA compounds were prepared freshly by adding 5% DMSO and sonicating for 1 h. Treatment of KFERQ-Dendra mice with the CA compounds was done at 4 months of age by i.p. daily injection of 30 mg/kg bw or vehicle for three consecutive days and tissues collected 6 h after the last injection. In the case of rd10 mice, animals were daily injected from P18 to P25 with CA77 (40 mg/kg bw). In the case of intravitreal administration, a single intravitreal injection was applied at P18 with CA77 (40 µM) in DMSO/PBS and the contralateral eye was injected with PBS and DMSO at same concentration. At P26, mice were sacrificed and eyes fixed overnight with 4% PFA (Sigma, #P6148) in PBS at 4 °C for immunofluorescence or retinas dissected and immediately frozen for biochemistry. Distribution of animals in the vehicle or treatment group was done randomly. ICR (CD-1) outbred 3 months old male mice from ENVIGO were used for the pharmacokinetic studies (see pharmacokinetic section for housing and handling details). All animal studies and procedures complied with ethical regulations, were performed in accordance with the European Union guidelines and the ARVO Statement for the Use of Animals in Ophthalmic and Vision Research and were approved by the Institutional Animal Care and Use Committee at the Albert Einstein College of Medicine, the CSIC Bioetica Comite and approved by the Comunidad de Madrid, PROEX232/17.
(§2) 12 μm cryosections and immunofluorescence in retinal sections[10] after orienting retinas with a dorsal mark, so comparisons were performed taking into account the precise retinal area. Primary antibodies used in this study were visual (rod) arrestin, cone arrestin, Opsin R/G, transducin, GFAP, N-CoR1. Sections were visualized by confocal microscopy (TCS SP5; Leica Microsystems).
(§3) For ONL thickness quantification, DAPI images were taken at 40X in a fluorescence microscope Multidimensional system Leica AF6000 LX coupled to DMI600B microscope and Hamamatsu CCD 9100-O2 camera. At least two sections per animal were analyzed, preferably central sections. Eight images per retina equally distributed along the retina were acquired. Three measures were taken per image and ratio ONL/INL quantified with ImageJ tools. Leica LAS-X (3.7.4.23463) was used for image acquisition and ImageJ (v.2.1.0) was used for image processing. For OS length measures, fixed positions common to all pictures were considered and OS length was measured using ImageJ straight line tool.
RNA was extracted from individual retinas or tissue sections (brain, liver). Total RNA from retinas was extracted using TRIzol Reagent (Invitrogen, # 15596-018), and reverse transcription was performed using the High-Capacity cDNA Reverse Transcription Kit (Applied Biosystems, # 4374966) according to the manufacturer’s instructions. […]

rd10 mice [2] = experiment: rd10 mice, single intravitreal injection, retina histology; format: in vivo, mouse
Protocol: as §1, §2, §3
Eyes were enucleated, put in a plate with cold PBS and an incision was made under the microscope to let the fixative enter into the eye. […]

CaCo-2 cells = experiment: Bidirectional permeability assay with CaCo-2 cells; format: in vitro ADME, human; settings: in words
Protocol: In vitro solubility in the following conditions A) HBSS/HEPES 10 mM/BSA 0.1% pH 6 B) HBSS/HEPES 10 mM/BSA 0.1% pH 7.4 C) TRIS/BSA 0.1% PBS (pH 7.4 and at indicated doses were measured by Nephelometry using the NEPHELOstar Galaxy apparatus (BMG Lab Technologies). In vitro stability in human, mouse and rat liver microsomes and permeability using a bidirectional permeability assay with CaCo-2 cells (pH 6.5/7.4) assays were performed with standard methodology and analyzed by LC-MS/MS. at SIMM-SERVIER joint Biopharmacy Laboratory. ADME properties for CA39 and CA77 were predicted by QikProp (Schrödinger, LLC, Releases 2016-2020) software.

[3] = system: retinal explants of rd10 mice; experiment: Ex-vivo retinal cultures of rd10 mice; set-up: species or system mouse; settings: rd10 P21 to P24; 40 μM for 72 h; vs contralateral untreated explant
Protocol: After removal of the eyes, all non-relevant tissue was removed from the neuroretina, which was then placed, photoreceptors upside down, in Millicell support inserts (Millipore, #PICM0RG50) and maintained in DMEM with 1 μM insulin (SIGMA, #I2643) for 72 h at 37 °C in a 5% CO2 atmosphere. Where indicated, retinas were incubated with 40 μM CA77 for the indicated times. The retinas were then washed twice with phosphate-buffered saline (PBS), fixed overnight in 4% paraformaldehyde (w/v) in 0.1 M phosphate buffer (pH 7.4) and processed. Retinas were separated along dorsoventral axis and nasal half was used for whole-mounts and temporal half was used for 12 µm cryosections.
Immunostainings were performed overnight at 4 °C using antibodies against visual (rod) arrestin and cone arrestin after initial permeabilization with 2% Triton X-100 for 1 h at RT and subsequent incubation with blocking solution (10% normal goat serum, 0.25% Triton X-100 in PBS). The retinas were then washed and incubated for 1 h with Alexa 568 or 647 (Invitrogen, #A-11004, #A32728), counterstained with DAPI (1 µg/mL, Sigma, # D9542), mounted in Fluoromount-G (Cultek, #100-01), and visualized by confocal microscopy in an SP5 confocal microscope (TCS SP5; Leica Microsystems). […]

rd10 mice [4] = settings: mouse, in vivo, ip, 40 mg/kg
[5] = rd10 mice, 7 days after a single intravitreal injection (40 µM) at P18
[6] = rd10 mice, individual values and Mean CA77

Structure (SMILES): CC(=O)Nc1ccc(C2=Nc3ccc(Cl)cc3OC2)cc1 [CA77]
- expression levels of NCOR1 (rd10 mice [1]; WT and rd10 mice): did not change the expression levels of NCOR1
- mRNA levels of photoreceptor-specific proteins (rhodopsin) (rd10 mice [1]; rd10 mice): Higher mRNA levels of photoreceptor-specific proteins
- outer nuclear layer (ONL) thickness (rd10 mice [1]; rd10 mice): significantly thicker outer nuclear layers
- retinal GFAP levels (rd10 mice [1]; rd10 mice): strikingly lower levels of GFAP
- retinal L2A levels by immunoblot (rd10 mice [1]; rd10 mice): significantly increasing retinal levels of the limiting CMA component
- length of the outer segments of photoreceptors (rd10 mice [1]; rd10 mice, vs vehicle): increased length of the outer segments of photoreceptors
- ONL/INL (rd10 mice [2]; Fig. S9c, individual animals): 0.8086 and 0.8292 and 0.9847
- ONL/INL, mean (rd10 mice [2]; Fig. S9c, mean, veh 0.676): 0.8578
- %functional cones (rd10 mice [2]; Fig. S9d, individual animals): 28.972% and 50% and 24.2991% and 28.7037% and 13.3929% and 16.5289% and 21.8182%
- %functional cones, mean (rd10 mice [2]; Fig. S9d, mean, veh 10.94): 26.24%
- gliosis (rd10 mice [2]; [5]): significatively improved
- retinal ONL/INL ratio (rd10 mice [2]; [5]): thicker retinal ONL/INL ratio
- Fig. 7a, retinal measurement by eccentricity, eccentricity 1 (rd10 mice [2]; [6]): 0.3526
- Fig. 7a, retinal measurement by eccentricity, eccentricity 2 (rd10 mice [2]; [6]): 0.3984
- Fig. 7a, retinal measurement by eccentricity, eccentricity 3 (rd10 mice [2]; [6]): 0.5851
- Fig. 7a, retinal measurement by eccentricity, eccentricity 4 (rd10 mice [2]; [6]): 0.8477
- Fig. 7a, retinal measurement by eccentricity, eccentricity -1 (rd10 mice [2]; [6]): 0.3423
- Fig. 7a, retinal measurement by eccentricity, eccentricity -2 (rd10 mice [2]; [6]): 0.3489
- Fig. 7a, retinal measurement by eccentricity, eccentricity -3 (rd10 mice [2]; [6]): 0.5902
- membrane permeability (CaCo-2 cells): highly membrane permeable
- cones (cone arrestin-positive) in retinal explants [3]: higher preservation for cones
- number of rods (rod arrestin-positive) in retinal explants [3]: significant preservation of the number of rods
- ERG amplitude of b-mixed, b-phot and flicker waves (rd10 mice [4]): significantly higher amplitude
